Measurements taken from US20050245527A1, “Nitrogen containing heterocyclic compounds and medicines containing the same” (priority 2002, published 2005).

Experiments:
[1] = test system: left saphenous nerve of rats (ectopic firing); assay: Inhibition of ectopic firing; format: in vivo; conditions: Rattus norvegicus, iv; rats with cut left saphenous nerve, urethane anesthesia, compound via catheter in right cervical vein, number of firings in 10 seconds; read-out: Inhibition of ectopic firing (ID50)
Protocol: <Inhibition of Ectopic Firing>
(1) The inhibitory effect on ectopic firing was evaluated by the following method, with reference to Burchiel, K J., Exp. Neurol., 102, 249-253 (1988).
(2) The left saphenous nerve of rats, in which ectopic firing was observed, was cut near the knee joint, and approximately 3 mm was cut off to avoid reattachment of the cut nerve. After more than a week, the left saphenous nerve was exposed under urethane (1 g/kg body weight) anesthesia, and the proximal part up to approximately 1 cm from the cut site was detached from the surrounding tissue. A catheter was inserted in the right cervical vein beforehand for administration of the compound.
(3) The detached nerve was placed on a platinum hook electrode and wetted with liquid paraffin to avoid drying of the nerve. The electrode was connected to a microelectrode amplifier, and the change in potential was recorded from an oscilloscope through an A/D converter onto a computer. The recorded nerve firing was evaluated based on the number of firings in 10 seconds, using analyzing software (AcqKnowledge).

sodium channels = format: cell-based; conditions: read-out: IC50 (μM), sodium channel-inhibiting activity; rat fetal cultured hippocampal neurons, SBFI fluorescence in the presence of 4-aminopyridine, 5 minutes after addition, 1 μM tetrodotoxin = 100%

Row | Compound | ED50 [1] | IC50 (sodium channels)
1 | O=C(O)C(=O)O.O=c1[nH]ccnc1CN1CCC(COc2ccccc2F)C1 (centres unmarked) [Example 132, 3-[3-(2-Fluorophenoxymethyl)pyrrolidino]methyl-1H-pyrazin-2-one oxalate] | 0.5 to 1 mg/kg | 6.2 µM
2 | O=c1[nH]ccnc1CN1CCC(CCc2ccccc2F)C1 (centres unmarked) [Example 134, 3-[3-[2-(2-Fluorophenyl)ethyl]pyrrolidino]methyl-1H-pyrazin-2-one] | 0.5 to 1 mg/kg | 3.1 µM
3 | COc1ccccc1CCC1CCN(Cc2ncc[nH]c2=O)C1.O=C(O)C(=O)O (centres unmarked) [Example 135, 3-[3-[2-(2-Methoxyphenyl)ethyl]pyrrolidino]methyl-1H-pyrazin-2-one oxalate] | < 0.5 mg/kg | 4 µM
4 | Cc1ccccc1OCC1CCN(Cc2ncc[nH]c2=O)C1.O=C(O)C(=O)O (centres unmarked) [Example 136, 3-[3-(2-Methylphenoxymethyl)pyrrolidino]methyl-1H-pyrazin-2-one oxalate] | 0.5 to 1 mg/kg | 4.7 µM
5 | O=c1[nH]ccnc1CN1CCC(CCc2cccc3c2OCC3)CC1 [Example 140, 3-[4-[2-(2,3-Dihydrobenzofuran-7-yl)ethyl]piperidino]methyl-1H-pyrazin-2-one] | < 0.5 mg/kg | 5.6 µM
6 | O=c1[nH]ccnc1CN1CCC(COc2ccccc2F)CC1 [Example 142, 3-[4-(2-Fluorophenoxymethyl)piperidino]methyl-1H-pyrazin-2-one] | < 0.5 mg/kg | 4.2 µM
7 | COc1ccccc1OCC1CCN(Cc2ncc[nH]c2=O)CC1 [Example 143, 3-[4-(2-Methoxyphenoxymethyl)piperidino]methyl-1H-pyrazin-2-one] | < 0.5 mg/kg | 3.1 µM
8 | COc1ccccc1C(=O)CC1CCN(Cc2ncc[nH]c2=O)CC1 [Example 145, 3-[4-[2-(2-Methoxyphenyl)-2-oxoethyl]piperidino]methyl-1H-pyrazin-2-one] | 0.5 to 1 mg/kg | 9.5 µM
9 | O=c1[nH]ccnc1CN1CCC(CCc2cccc3ccoc23)CC1 [Example 146, 3-[4-[2-(Benzofuran-7-yl)ethyl]piperidino]methyl-1H-pyrazin-2-one] | < 0.5 mg/kg | 2 µM
10 | Cc1ccccc1OCC1CCN(Cc2ncc[nH]c2=O)CC1 [Example 147, 3-[4-(2-Methylphenoxymethyl)piperidino]methyl-1H-pyrazin-2-one] | < 0.5 mg/kg | 2.5 µM
11 | O=c1[nH]ccnc1CN1CCC(COc2cc(F)ccc2F)CC1 [Example 151, 3-[4-(2,5-Difluorophenoxymethyl)piperidino]methyl-1H-pyrazin-2-one] | 0.5 to 1 mg/kg | 2.9 µM
12 | Cc1ccccc1COC1CCN(Cc2ncc[nH]c2=O)CC1 [Example 152, 3-[4-(2-Methylbenzyloxy)piperidino]methyl-1H-pyrazin-2-one] | 0.5 to 1 mg/kg | 5.3 µM
13 | Cc1cccc(OCC2CCN(Cc3ncc[nH]c3=O)CC2)c1 [Example 153, 3-[4-(3-Methylphenoxymethyl)piperidino]methyl-1H-pyrazin-2-one] | 0.5 to 1 mg/kg | 4.1 µM
14 | Cc1ccccc1OCC1CCCN(Cc2ncc[nH]c2=O)C1 (centres unmarked) [Example 154, 3-[3-(2-Methylphenoxymethyl)piperidino]methyl-1H-pyrazin-2-one] | 0.5 to 1 mg/kg | 3.1 µM
15 | O=c1[nH]ccnc1CN1CCCC(CCc2ccccc2F)C1 (centres unmarked) [Example 156, 3-[3-[2-(2-Fluorophenyl)ethyl]piperidino]methyl-1H-pyrazin-2-one] | 0.5 to 1 mg/kg | 4.5 µM
16 | Cc1ccsc1/C=C/C1CCN(Cc2ncc[nH]c2=O)CC1 [Example 157, (E)-3-[4-[2-(3-Methyl-2-thienyl)vinyl]piperidino]methyl-1H-pyrazin-2-one] | < 0.5 mg/kg | 3.6 µM
17 | O=c1[nH]ccnc1CN1CCC(COc2ccccc2Cl)CC1 [Example 158, 3-[4-(2-Chlorophenoxymethyl)piperidino]methyl-1H-pyrazin-2-one] | < 0.5 mg/kg | 3.7 µM
18 | O=c1[nH]ccnc1CN1CCC(COCc2ccccc2F)CC1 [Example 160, 3-[4-(2-Fluorobenzyloxymethyl)piperidino]methyl-1H-pyrazin-2-one] | 0.5 to 1 mg/kg | 3.5 µM
19 | O=c1[nH]ccnc1CN1CCC(COc2cccc(F)c2)CC1 [Example 162, 3-[4-(3-Fluorophenoxymethyl)piperidino]methyl-1H-pyrazin-2-one] | 0.5 to 1 mg/kg | 4.6 µM
20 | O=c1[nH]ccnc1CN1CCC(COc2ccccc2C(F)(F)F)CC1 [Example 164, 3-[4-[2-(Trifluoromethyl)phenoxymethyl]piperidino]methyl-1H-pyrazin-2-one] | < 0.5 mg/kg | 3.3 µM

Row | Compound | ED50 [1] | IC50 (sodium channels)
21 | O=c1[nH]ccnc1CN1CCC(COc2ccccc2OC(F)(F)F)CC1 [Example 167, 3-[4-[2-(Trifluoromethoxy)phenoxymethyl]piperidino]methyl-1H-pyrazin-2-one] | < 0.5 mg/kg | 2.3 µM
22 | O=c1[nH]ccnc1CN1CCC(/C=C/c2sccc2Cl)CC1 [Example 168, (E)-3-[4-[2-(3-Chloro-2-thienyl)vinyl]piperidino]methyl-1H-pyrazin-2-one] | 0.5 to 1 mg/kg | 2.1 µM
23 | O=C(CC1CCN(Cc2ncc[nH]c2=O)CC1)c1sccc1Cl [Example 169, 3-[4-[2-(3-Chloro-2-thienyl)-2-oxoethyl]piperidino]methyl-1H-pyrazin-2-one] | 0.5 to 1 mg/kg | 3.5 µM
24 | O=c1[nH]ccnc1CN1CCC(C#Cc2ccccc2F)CC1 [Example 170, 3-[4-[(2-Fluorophenyl)ethynyl]piperidino]methyl-1H-pyrazin-2-one] | < 0.5 mg/kg | 0.4 µM
25 | Cc1ccccc1/C=C/C1CCN(Cc2ncc[nH]c2=O)CC1 [Example 171, (E)-3-[4-[2-(2-Methylphenyl)vinyl]piperidino]methyl-1H-pyrazin-2-one] | < 0.5 mg/kg | 0.6 µM
26 | O=c1[nH]ccnc1CN1CCC(CCc2sccc2F)CC1 [Example 172, 3-[4-[2-(3-Fluoro-2-thienyl)ethyl]piperidino]methyl-1H-pyrazin-2-one] | 0.5 to 1 mg/kg | 5 µM
27 | O=C(CC1CCN(Cc2ncc[nH]c2=O)CC1)c1ccccc1Cl [Example 174, 3-[4-[2-(2-Chlorophenyl)-2-oxoethyl]piperidino]methyl-1H-pyrazin-2-one] | < 0.5 mg/kg | 3.6 µM
28 | O=c1[nH]ccnc1CN1CCC(/C=C/c2cccc(F)c2)CC1 [Example 176, (E)-3-[4-[2-(3-Fluorophenyl)vinyl]piperidino]methyl-1H-pyrazin-2-one] | 0.5 to 1 mg/kg | 5.4 µM
29 | O=c1[nH]ccnc1CN1CCC(CCc2ccccc2F)CC1 [Example 177, 3-[4-[2-(2-Fluorophenyl)ethyl]piperidino]methyl-1H-pyrazin-2-one] | < 0.5 mg/kg | 4.5 µM
30 | O=C(Cc1ccccc1F)C1CCN(Cc2ncc[nH]c2=O)CC1 [Example 179, 3-[4-[2-(2-Fluorophenyl)acetyl]piperidino]methyl-1H-pyrazin-2-one] | < 0.5 mg/kg | 4.6 µM
31 | O=C(Cc1ccccc1Cl)C1CCN(Cc2ncc[nH]c2=O)CC1 [Example 183, 3-[4-[2-(2-Chlorophenyl)acetyl]piperidino]methyl-1H-pyrazin-2-one] | < 0.5 mg/kg | 2.6 µM
32 | Cc1ccccc1CC(=O)C1CCN(Cc2ncc[nH]c2=O)CC1 [Example 184, 3-[4-[2-(2-Methylphenyl)acetyl]piperidino]methyl-1H-pyrazin-2-one] | < 0.5 mg/kg | 2.9 µM
33 | O=c1[nH]ccnc1CN1CCC(c2nc(-c3ccccc3F)no2)CC1 [Example 187, 3-[4-[3-(2-Fluorophenyl)-1,2,4-oxadiazol-5-yl]piperidino]methyl-1H-pyrazin-2-one] | 0.5 to 1 mg/kg | 3.5 µM
34 | O=c1[nH]ccnc1CN1CCC(c2nc(-c3cccc(F)c3)no2)CC1 [Example 188, 3-[4-[3-(3-Fluorophenyl)-1,2,4-oxadiazol-5-yl]piperidino]methyl-1H-pyrazin-2-one] | 0.5 to 1 mg/kg | 5 µM
35 | Cc1cccc(CC(=O)C2CCN(Cc3ncc[nH]c3=O)CC2)c1 [Example 192, 3-[4-[2-(3-Methylphenyl)acetyl]piperidino]methyl-1H-pyrazin-2-one] | 0.5 to 1 mg/kg | 3.8 µM
36 | COc1ccccc1CC(=O)C1CCN(Cc2ncc[nH]c2=O)CC1 [Example 193, 3-[4-[2-(2-Methoxyphenyl)acetyl]piperidino]methyl-1H-pyrazin-2-one] | < 0.5 mg/kg | 2.9 µM
37 | O=C(Cc1c(F)cccc1F)C1CCN(Cc2ncc[nH]c2=O)CC1 [Example 195, 3-[4-[2-(2,6-Difluorophenyl)acetyl]piperidino]methyl-1H-pyrazin-2-one] | 0.5 to 1 mg/kg | 2 µM
38 | O=c1[nH]ccnc1CN1CCC(COc2ccccc2)CC1 [Example 198, 3-[4-(Phenoxymethyl)piperidino]methyl-1H-pyrazin-2-one] | < 0.5 mg/kg | 1.6 µM
39 | O=C(Cc1cccc(F)c1F)C1CCN(Cc2ncc[nH]c2=O)CC1 [Example 200, 3-[4-[2-(2,3-Difluorophenyl)acetyl]piperidino]methyl-1H-pyrazin-2-one] | 0.5 to 1 mg/kg | 1.6 µM
40 | O=c1[nH]ccnc1CN1CCC(COc2c(F)cccc2F)CC1 [Example 201, 3-[4-(2,6-Difluorophenoxymethyl)piperidino]methyl-1H-pyrazin-2-one] | 0.5 to 1 mg/kg | 6.7 µM
